Assay results reported in paper PMC9056855 (RSC Advances, 2020).

Columns and labels:
Format in all cases: biochemical
UGT1A9 [1] = biological target: T1, UGT1A9 (Homo sapiens, UniProt O60656); assay: probe substrate turnover, UHPLC
T1 sequence (O60656 26-530): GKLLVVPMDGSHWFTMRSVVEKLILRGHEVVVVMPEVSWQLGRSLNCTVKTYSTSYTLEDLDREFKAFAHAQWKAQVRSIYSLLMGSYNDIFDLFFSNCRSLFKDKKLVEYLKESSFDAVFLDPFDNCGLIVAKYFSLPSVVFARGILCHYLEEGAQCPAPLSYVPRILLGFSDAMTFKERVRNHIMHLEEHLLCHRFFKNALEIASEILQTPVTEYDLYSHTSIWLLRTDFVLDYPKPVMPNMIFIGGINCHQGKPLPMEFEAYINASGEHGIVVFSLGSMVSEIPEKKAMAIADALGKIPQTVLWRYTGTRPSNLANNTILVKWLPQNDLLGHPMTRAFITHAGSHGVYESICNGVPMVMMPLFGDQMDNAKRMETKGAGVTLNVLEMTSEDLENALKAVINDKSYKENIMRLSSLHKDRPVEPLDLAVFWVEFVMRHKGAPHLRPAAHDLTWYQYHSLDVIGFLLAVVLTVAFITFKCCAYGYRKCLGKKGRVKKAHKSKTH

UGT1A1 = biological target: T2, UGT1A1 (Homo sapiens, UniProt P22309); assay: probe substrate turnover, UHPLC
T2 sequence (P22309 26-533): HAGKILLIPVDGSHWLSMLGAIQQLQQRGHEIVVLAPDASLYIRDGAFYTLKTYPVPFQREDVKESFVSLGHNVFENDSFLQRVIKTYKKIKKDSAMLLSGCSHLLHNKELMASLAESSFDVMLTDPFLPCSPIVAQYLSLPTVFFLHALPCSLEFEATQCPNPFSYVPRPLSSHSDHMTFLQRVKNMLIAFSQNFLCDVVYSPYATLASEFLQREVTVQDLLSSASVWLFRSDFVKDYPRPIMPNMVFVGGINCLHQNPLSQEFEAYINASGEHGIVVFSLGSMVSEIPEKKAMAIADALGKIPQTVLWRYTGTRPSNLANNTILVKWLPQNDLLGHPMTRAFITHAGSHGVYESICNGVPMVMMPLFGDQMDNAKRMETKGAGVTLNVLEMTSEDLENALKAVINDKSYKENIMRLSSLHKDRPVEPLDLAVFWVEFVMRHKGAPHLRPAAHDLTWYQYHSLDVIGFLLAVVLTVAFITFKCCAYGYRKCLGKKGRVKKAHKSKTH

UGT2B7 [2] = biological target: T3, UGT2B7 (Homo sapiens, UniProt P16662); assay: inhibition kinetics, nonlinear fit, Dixon plot, UHPLC
T3 sequence (P16662 24-529): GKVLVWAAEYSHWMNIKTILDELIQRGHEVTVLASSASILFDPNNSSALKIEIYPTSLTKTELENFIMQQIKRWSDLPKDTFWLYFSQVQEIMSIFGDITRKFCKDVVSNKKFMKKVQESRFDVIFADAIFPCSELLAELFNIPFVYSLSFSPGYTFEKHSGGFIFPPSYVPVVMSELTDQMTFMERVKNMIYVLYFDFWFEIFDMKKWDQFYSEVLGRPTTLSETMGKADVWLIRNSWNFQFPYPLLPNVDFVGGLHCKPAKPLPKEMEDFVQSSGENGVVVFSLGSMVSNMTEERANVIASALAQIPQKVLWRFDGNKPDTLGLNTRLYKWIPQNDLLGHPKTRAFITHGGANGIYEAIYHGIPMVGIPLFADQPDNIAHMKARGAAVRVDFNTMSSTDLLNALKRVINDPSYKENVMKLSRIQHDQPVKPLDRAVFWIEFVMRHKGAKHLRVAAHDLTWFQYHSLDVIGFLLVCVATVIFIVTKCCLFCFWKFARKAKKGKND

CYP2E1 = CYP2E1 (Homo sapiens, UniProt P05181); assay: probe substrate turnover, UHPLC
CYP2E1, sequence (P05181 whole entry): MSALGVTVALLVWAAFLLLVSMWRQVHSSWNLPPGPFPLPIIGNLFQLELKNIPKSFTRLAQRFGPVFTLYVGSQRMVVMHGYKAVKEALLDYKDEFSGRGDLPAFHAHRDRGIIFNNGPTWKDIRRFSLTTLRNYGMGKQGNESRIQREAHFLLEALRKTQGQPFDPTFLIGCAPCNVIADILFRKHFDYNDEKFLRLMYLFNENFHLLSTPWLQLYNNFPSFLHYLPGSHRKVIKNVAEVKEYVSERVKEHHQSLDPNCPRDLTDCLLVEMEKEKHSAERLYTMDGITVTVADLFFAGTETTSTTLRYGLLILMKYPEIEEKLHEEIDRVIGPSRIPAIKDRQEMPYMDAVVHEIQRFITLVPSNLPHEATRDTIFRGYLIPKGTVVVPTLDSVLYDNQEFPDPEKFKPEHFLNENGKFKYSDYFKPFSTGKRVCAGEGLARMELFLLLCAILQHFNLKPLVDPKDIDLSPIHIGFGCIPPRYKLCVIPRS

CYP1A2 = biological target: T4, CYP1A2 (Homo sapiens, UniProt P05177); assay: probe substrate turnover, UHPLC
T4 sequence (P05177 2-516): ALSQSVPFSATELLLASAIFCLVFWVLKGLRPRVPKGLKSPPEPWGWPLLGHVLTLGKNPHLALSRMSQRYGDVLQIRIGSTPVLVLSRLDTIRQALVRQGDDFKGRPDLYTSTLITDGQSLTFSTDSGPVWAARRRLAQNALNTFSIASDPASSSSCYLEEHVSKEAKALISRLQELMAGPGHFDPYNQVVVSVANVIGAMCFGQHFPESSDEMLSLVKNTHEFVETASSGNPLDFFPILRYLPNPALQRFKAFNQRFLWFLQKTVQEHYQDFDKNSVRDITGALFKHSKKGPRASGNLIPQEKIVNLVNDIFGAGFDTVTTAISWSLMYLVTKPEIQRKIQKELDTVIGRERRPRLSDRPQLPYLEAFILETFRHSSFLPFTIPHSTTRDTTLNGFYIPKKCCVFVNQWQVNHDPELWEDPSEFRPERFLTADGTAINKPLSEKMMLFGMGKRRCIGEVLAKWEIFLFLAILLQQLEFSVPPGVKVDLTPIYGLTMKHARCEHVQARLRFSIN

CYP2B6 [3] = biological target: T5, CYP2B6 (Homo sapiens, UniProt P20813); assay: probe substrate turnover, UHPLC
T5 sequence (P20813 1-491): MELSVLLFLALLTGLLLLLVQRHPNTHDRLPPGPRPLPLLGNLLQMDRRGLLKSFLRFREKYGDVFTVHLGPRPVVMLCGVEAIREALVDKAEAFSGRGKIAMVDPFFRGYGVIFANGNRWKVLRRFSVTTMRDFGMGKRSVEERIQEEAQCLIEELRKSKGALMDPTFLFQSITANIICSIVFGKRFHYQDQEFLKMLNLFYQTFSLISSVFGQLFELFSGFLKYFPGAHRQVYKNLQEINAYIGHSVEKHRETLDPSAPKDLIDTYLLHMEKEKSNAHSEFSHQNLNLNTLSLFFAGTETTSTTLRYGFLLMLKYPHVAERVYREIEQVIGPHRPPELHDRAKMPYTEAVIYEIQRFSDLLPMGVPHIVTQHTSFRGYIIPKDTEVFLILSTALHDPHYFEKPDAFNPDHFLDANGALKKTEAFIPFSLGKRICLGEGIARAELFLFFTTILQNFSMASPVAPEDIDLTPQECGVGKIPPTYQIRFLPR

CYP2C8 = biological target: T6, CYP2C8 (Homo sapiens, UniProt P10632); assay: probe substrate turnover, UHPLC
T6 sequence (P10632 1-490): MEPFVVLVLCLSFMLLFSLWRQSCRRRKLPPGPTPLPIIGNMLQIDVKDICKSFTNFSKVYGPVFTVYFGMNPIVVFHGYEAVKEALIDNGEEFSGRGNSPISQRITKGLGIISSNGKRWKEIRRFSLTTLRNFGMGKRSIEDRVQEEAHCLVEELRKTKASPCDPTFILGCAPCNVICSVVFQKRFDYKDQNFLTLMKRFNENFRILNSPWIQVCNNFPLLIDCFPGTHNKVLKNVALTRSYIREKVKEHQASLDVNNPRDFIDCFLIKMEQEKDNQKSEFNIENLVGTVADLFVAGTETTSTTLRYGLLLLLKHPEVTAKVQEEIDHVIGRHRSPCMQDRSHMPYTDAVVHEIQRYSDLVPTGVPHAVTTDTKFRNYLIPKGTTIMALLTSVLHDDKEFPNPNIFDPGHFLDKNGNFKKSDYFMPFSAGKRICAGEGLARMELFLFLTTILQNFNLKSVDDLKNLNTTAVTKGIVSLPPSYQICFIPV

CYP2C9 [4] = biological target: T7, CYP2C9 (Homo sapiens, UniProt P11712); assay: probe substrate turnover, UHPLC
T7 sequence (P11712 whole entry): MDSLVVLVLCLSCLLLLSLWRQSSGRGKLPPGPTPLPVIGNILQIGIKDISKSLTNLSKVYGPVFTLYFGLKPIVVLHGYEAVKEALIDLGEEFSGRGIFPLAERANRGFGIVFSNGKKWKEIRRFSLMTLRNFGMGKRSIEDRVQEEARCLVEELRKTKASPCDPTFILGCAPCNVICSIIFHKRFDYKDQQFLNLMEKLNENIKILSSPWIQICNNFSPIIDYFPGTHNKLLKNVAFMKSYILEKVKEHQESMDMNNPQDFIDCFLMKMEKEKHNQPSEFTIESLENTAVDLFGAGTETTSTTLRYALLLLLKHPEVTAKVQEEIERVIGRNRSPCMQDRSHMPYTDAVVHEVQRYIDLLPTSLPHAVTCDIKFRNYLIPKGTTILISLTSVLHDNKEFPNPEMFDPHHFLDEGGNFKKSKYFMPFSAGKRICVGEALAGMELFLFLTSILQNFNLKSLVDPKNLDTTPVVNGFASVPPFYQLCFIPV

CYP2C19 [5] = biological target: T8, CYP2C19 (Homo sapiens, UniProt P33261); assay: inhibition kinetics, nonlinear fit, Dixon plot, UHPLC
T8 sequence (P33261 whole entry): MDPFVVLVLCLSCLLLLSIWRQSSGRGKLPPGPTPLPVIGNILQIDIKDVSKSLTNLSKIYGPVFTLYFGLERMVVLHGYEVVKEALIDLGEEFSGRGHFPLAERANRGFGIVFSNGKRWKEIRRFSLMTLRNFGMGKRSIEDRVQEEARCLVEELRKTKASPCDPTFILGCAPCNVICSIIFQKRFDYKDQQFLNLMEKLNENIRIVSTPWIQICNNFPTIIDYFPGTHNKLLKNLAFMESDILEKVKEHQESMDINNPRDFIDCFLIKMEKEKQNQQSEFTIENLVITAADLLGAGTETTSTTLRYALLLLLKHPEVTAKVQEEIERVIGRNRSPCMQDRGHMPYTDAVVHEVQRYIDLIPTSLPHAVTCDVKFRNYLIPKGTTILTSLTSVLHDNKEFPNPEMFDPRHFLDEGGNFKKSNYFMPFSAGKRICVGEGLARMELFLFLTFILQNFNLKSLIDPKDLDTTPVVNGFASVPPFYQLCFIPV

UGT2B7 [6] = biological target: T3, UGT2B7; assay: probe substrate turnover, UHPLC
CYP2C9 [7] = biological target: T7, CYP2C9; assay: inhibition kinetics, nonlinear fit, Dixon plot, UHPLC
UGT1A9 [8] = biological target: T1, UGT1A9; assay: as above
CYP2C19 [9] = biological target: T8, CYP2C19; assay: probe substrate turnover, UHPLC
CYP3A4 = CYP3A4 (Homo sapiens, UniProt P08684); assay: probe substrate turnover, UHPLC
CYP3A4, sequence (P08684 2-503): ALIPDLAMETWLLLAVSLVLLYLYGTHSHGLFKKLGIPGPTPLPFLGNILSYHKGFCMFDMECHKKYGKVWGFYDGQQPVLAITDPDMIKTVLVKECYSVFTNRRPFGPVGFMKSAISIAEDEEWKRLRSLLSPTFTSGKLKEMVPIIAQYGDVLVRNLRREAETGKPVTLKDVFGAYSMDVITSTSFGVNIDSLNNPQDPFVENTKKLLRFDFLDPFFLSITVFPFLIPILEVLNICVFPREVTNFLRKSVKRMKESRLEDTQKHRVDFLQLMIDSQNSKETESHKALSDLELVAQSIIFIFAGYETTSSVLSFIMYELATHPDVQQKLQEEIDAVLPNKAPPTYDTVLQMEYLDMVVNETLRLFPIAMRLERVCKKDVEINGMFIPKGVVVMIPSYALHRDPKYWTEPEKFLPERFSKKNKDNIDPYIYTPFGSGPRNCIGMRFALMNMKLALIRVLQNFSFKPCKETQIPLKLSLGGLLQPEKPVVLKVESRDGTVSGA

CYP2B6 [10] = biological target: T5, CYP2B6; assay: inhibition kinetics, nonlinear fit, Dixon plot, UHPLC

IC50 (UGT1A9 [1]): 2.34 ± 0.61 µM
IC50 (UGT1A1): 20.7 ± 10.6 µM
Ki (UGT2B7 [2]): 1.13 ± 0.12 µM
% residual activity at 100 μM (CYP2E1): 51.5%
% residual activity at 100 μM (CYP1A2): 91.5%
IC50 (CYP2B6 [3]): 1.68 ± 0.63 µM
% residual activity at 100 μM (CYP2C8): 21.5%
IC50 (CYP2C9 [4]): 0.28 ± 0.07 µM
Ki (CYP2C19 [5]): 1.86 ± 0.16 µM
IC50 (UGT2B7 [6]): 2.53 ± 0.62 µM
Ki (CYP2C9 [7]): 0.19 ± 0.03 µM
Ki (UGT1A9 [8]): 0.37 ± 0.04 µM
IC50 (CYP2C19 [9]): 1.38 ± 0.53 µM
% residual activity at 100 μM (CYP3A4): 24.7%
Ki (CYP2B6 [10]): 1.51 ± 0.12 µM
SMILES: COc1cc2c(cc1CC=C(C)C)C(=O)C[C@@H](c1ccc(O)cc1)O2 [bavachinin]
